Reference: US20240390434A1, “PROBIOTIC ENHANCERS AND USES THEREOF” (Blis Technologies Limited, priority 2021, published 2024)

What was measured:
Experiment in all cases: Deferred antagonism assay, producer S. salivarius M18
Type in all cases: cell-based
S. constellatus T29 = details: for Zone of inhibition S. constellatus T29: M18
S. mutans OMZ175 = details: for Zone of inhibition S. mutans OMZ175: M18
S. pneumoniae D39 = details: for Zone of inhibition S. pneumoniae D39: M18
S. pyogenes 71-698 = details: for Zone of inhibition S. pyogenes 71-698: M18
[1] = test system: S. saprophyticus ATCC 15305; details: for Zone of inhibition S. saprophyticus ATCC 15305: M18
[2] = 1.25, 2.5, 5% w/v raffinose added

For `OC[C@H]1O[C@H](OC[C@H]2O[C@H](O[C@]3(CO)O[C@H](CO)[C@@H](O)[C@@H]3O)[C@H](O)[C@@H](O)[C@@H]2O)[C@H](O)[C@@H](O)[C@H]1O` [Raffinose, D-(+) Raffinose pentahydrate], the “sensitivity of S. constellatus T-29 to M18” value (S. constellatus T29; [2]) was “sensitive”, the “Zone of inhibition S. constellatus T29” value (S. constellatus T29; Raffinose 1.7% wt) was 22 mm and the “Zone of inhibition S. constellatus T29” value (S. constellatus T29; Raffinose 1.7% wt, pH adjusted) was 17 mm. For the same compound, the “Zone of inhibition S. constellatus T29” value (S. constellatus T29; Raffinose 2.5% wt) was 18 mm, the “Zone of inhibition S. constellatus T29” value (S. constellatus T29; Raffinose 2.5% wt, pH adjusted) was 16 mm and the “Zone of inhibition S. constellatus T29” value (S. constellatus T29; Raffinose 3.3% wt) was 18 mm. The “Zone of inhibition S. constellatus T29” value (S. constellatus T29; Raffinose 3.3% wt, pH adjusted) was 17 mm, the “Zone of inhibition S. constellatus T29” value (S. constellatus T29; Raffinose 5% wt) was 16 mm and the “Zone of inhibition S. constellatus T29” value (S. constellatus T29; Raffinose 5% wt, pH adjusted) was 14 mm. For the same compound, the “Zone of inhibition S. constellatus T29” value (S. constellatus T29; Raffinose 10% wt) was 12 mm, the “Zone of inhibition S. constellatus T29” value (S. constellatus T29; Raffinose 10% wt, pH adjusted) was 0 mm and the “sensitivity of S. mutans OMZ175 to M18” value (S. mutans OMZ175; 0.5, 1.25, 2.5, and 5% w/v raffinose added) was “sensitive”. For the same compound, the “Zone of inhibition S. mutans OMZ175” value (S. mutans OMZ175; Raffinose 1.7% wt) was 22 mm, the “Zone of inhibition S. mutans OMZ175” value (S. mutans OMZ175; Raffinose 1.7% wt, pH adjusted) was 21 mm and the “Zone of inhibition S. mutans OMZ175” value (S. mutans OMZ175; Raffinose 2.5% wt) was 20 mm. For the same compound, the “Zone of inhibition S. mutans OMZ175” value (S. mutans OMZ175; Raffinose 2.5% wt, pH adjusted) was 19 mm, the “Zone of inhibition S. mutans OMZ175” value (S. mutans OMZ175; Raffinose 3.3% wt) was 21 mm and the “Zone of inhibition S. mutans OMZ175” value (S. mutans OMZ175; Raffinose 3.3% wt, pH adjusted) was 17 mm. For the same compound, the “Zone of inhibition S. mutans OMZ175” value (S. mutans OMZ175; Raffinose 5% wt) was 19 mm, the “Zone of inhibition S. mutans OMZ175” value (S. mutans OMZ175; Raffinose 5% wt, pH adjusted) was 16 mm and the “Zone of inhibition S. mutans OMZ175” value (S. mutans OMZ175; Raffinose 10% wt) was 0 mm. For the same compound, the “Zone of inhibition S. mutans OMZ175” value (S. mutans OMZ175; Raffinose 10% wt, pH adjusted) was 0 mm, the “inhibition by M18 of S. pneumoniae” value (S. pneumoniae D39; 0.5 to 10% w/v raffinose) was “increase in inhibition” and the “Zone of inhibition S. pneumoniae D39” value (S. pneumoniae D39; Raffinose 1.7% wt) was 3 mm. The “Zone of inhibition S. pneumoniae D39” value (S. pneumoniae D39; Raffinose 1.7% wt, pH adjusted) was 12 mm, the “Zone of inhibition S. pneumoniae D39” value (S. pneumoniae D39; Raffinose 2.5% wt) was 10 mm and the “Zone of inhibition S. pneumoniae D39” value (S. pneumoniae D39; Raffinose 2.5% wt, pH adjusted) was 11 mm. The “Zone of inhibition S. pneumoniae D39” value (S. pneumoniae D39; Raffinose 3.3% wt) was 7 mm, the “Zone of inhibition S. pneumoniae D39” value (S. pneumoniae D39; Raffinose 3.3% wt, pH adjusted) was 13 mm and the “Zone of inhibition S. pneumoniae D39” value (S. pneumoniae D39; Raffinose 5% wt) was 2 mm. For the same compound, the “Zone of inhibition S. pneumoniae D39” value (S. pneumoniae D39; Raffinose 5% wt, pH adjusted) was 12 mm, the “Zone of inhibition S. pneumoniae D39” value (S. pneumoniae D39; Raffinose 10% wt) was 1 mm and the “Zone of inhibition S. pneumoniae D39” value (S. pneumoniae D39; Raffinose 10% wt, pH adjusted) was 11 mm. The “inhibition by M18 of S. pyogenes” value (S. pyogenes 71-698; 0.5 to 10% w/v raffinose) was “increase in inhibition”, the “Zone of inhibition S. pyogenes 71-698” value (S. pyogenes 71-698; Raffinose 1.7% wt, pH adjusted) was 10 mm and the “Zone of inhibition S. pyogenes 71-698” value (S. pyogenes 71-698; Raffinose 2.5% wt) was 8 mm. For the same compound, the “Zone of inhibition S. pyogenes 71-698” value (S. pyogenes 71-698; Raffinose 2.5% wt, pH adjusted) was 7 mm, the “Zone of inhibition S. pyogenes 71-698” value (S. pyogenes 71-698; Raffinose 3.3% wt) was 8 mm and the “Zone of inhibition S. pyogenes 71-698” value (S. pyogenes 71-698; Raffinose 3.3% wt, pH adjusted) was 7 mm. The “Zone of inhibition S. pyogenes 71-698” value (S. pyogenes 71-698; Raffinose 5% wt) was 5 mm, the “Zone of inhibition S. pyogenes 71-698” value (S. pyogenes 71-698; Raffinose 5% wt, pH adjusted) was 5 mm and the “Zone of inhibition S. pyogenes 71-698” value (S. pyogenes 71-698; Raffinose 10% wt) was 0 mm. The “Zone of inhibition S. pyogenes 71-698” value (S. pyogenes 71-698; Raffinose 10% wt, pH adjusted) was 0 mm, the “sensitivity of S. saprophyticus ATCC 15305 to M18” value [1, 2] was “sensitive” and the “Zone of inhibition S. saprophyticus ATCC 15305” value ([1]; Raffinose 1.7% wt) was 16 mm. For the same compound, the “Zone of inhibition S. saprophyticus ATCC 15305” value ([1]; Raffinose 1.7% wt, pH adjusted) was 15 mm, the “Zone of inhibition S. saprophyticus ATCC 15305” value ([1]; Raffinose 2.5% wt) was 17 mm and the “Zone of inhibition S. saprophyticus ATCC 15305” value ([1]; Raffinose 2.5% wt, pH adjusted) was 15 mm. For the same compound, the “Zone of inhibition S. saprophyticus ATCC 15305” value ([1]; Raffinose 3.3% wt) was 17 mm, the “Zone of inhibition S. saprophyticus ATCC 15305” value ([1]; Raffinose 3.3% wt, pH adjusted) was 14 mm and the “Zone of inhibition S. saprophyticus ATCC 15305” value ([1]; Raffinose 5% wt) was 14 mm. The “Zone of inhibition S. saprophyticus ATCC 15305” value ([1]; Raffinose 5% wt, pH adjusted) was 12 mm, the “Zone of inhibition S. saprophyticus ATCC 15305” value ([1]; Raffinose 10% wt) was 0 mm and the “Zone of inhibition S. saprophyticus ATCC 15305” value ([1]; Raffinose 10% wt, pH adjusted) was 0 mm.
